Consider two compounds from article PMC11671014 (PLOS Pathogens, 2024).

The nature of one series: Caco-2 permeability. Format: in vitro ADME. The following applies: human. As for the experimental part:
Permeability studies were performed as described previously. In brief, Caco-2 cells were cultured for 21–25 days to differentiate them into enterocyte-like cells. The transepithelial electrical resistance (TEER) was measured to ensure tight junction formation and cells with TEER value more than 250 ohms.cm^2 were used in the study. On the day of the transport study, cells were washed with warm HBSS buffer and equilibrated with buffer for 60 min. ML471 was added at a concentration of 5 μM (containing 50 μM Lucifer Yellow) into a 24 Transwell cell plate (apical 210 μL and basal 1000 μL) and buffer was added in the receiver side. Cells were incubated at 37°C for 60 min and 120 μL aliquots were taken from the receiver side after 30 and 60 min. Samples were mixed with 100 nM carbutamide in acetonitrile (ACN) containing 0.1% formic acid (internal standard). Samples were centrifuged at 2,056 x g for 10 min and the supernatant was collected and analyzed for quantification of the test article by LC-MS [49].
(Passage across Caco-2 layers is used to estimate intestinal permeability.)

For series [1], the system named is P. falciparum Brazilian field isolates. Description: Ex vivo drug susceptibility of Brazilian field isolates (P. falciparum). The class given is cell-based. The following applies: Plasmodium falciparum. As for the experimental part: Compounds were assayed on ten P. vivax isolates and seven P. falciparum Brazilian isolates collected from mono-infected patients, who had signed a written informed consent form to participate in the study, using previously described methods. The initial parasitemia ranged from 2,100–8,000 parasites/μL for P. vivax and 3,500–9,000 parasites/μL for P. falciparum isolates. Artesunate and chloroquine were assayed in parallel as standard compounds. The analyses included only the isolates that were incubated for ≥ 40 h with the compounds.

The subject of series [2] is stage V NF54 strain male and female gametocytes. Also noted: method as in ref [1] Xie et al., Science 2022. The following applies: 48 h, ref [1] Xie et al., Science 2022, cited from earlier work.

Where two headings read alike, the source gives them in different places.

As usually defined, the Papp A→B is the apparent permeability from the apical to the basolateral side of a cell layer. The Papp B→A is the apparent permeability from the basolateral to the apical side of a cell layer. For orientation: EC50 means the concentration that produces a half-maximal response. Turning to `CC(C)c1nn([C@@H]2O[C@H](COS(N)(=O)=O)[C@@H](O)[C@H]2O)c2ncnc(N)c12` [ML471, ((2R,3S,4R,5R)-5-(4-amino-3-isopropyl-1H-pyrazolo[3,4-d]pyrimidin-1-yl)-3,4-dihydroxytetrahydrofuran-2-yl)methyl sulfamate], in “Caco-2 permeability” (5 μM, 60 min, second figure of the cell, read-out: Caco2 Papp (A to B)), the Papp A→B at 60 min, 5 μM was 0.17 ×10⁻⁶ cm/s. Further, in “Caco-2 permeability” (5 μM, 60 min, third figure of the cell, read-out: Caco2 Papp (B to A)), the Papp B→A at 60 min, 5 μM was found to be 1.3 ×10⁻⁶ cm/s. Also, the efflux ratio at 60 min, 5 μM in “Caco-2 permeability” (equals B to A / A to B, read-out: Caco2, first figure of the cell, not given) came out at 7.6. For the same compound, the half-maximal effective concentration (EC50) in series [1] (range over n = 7 isolates, read-out: EC50 range, P. falciparum Brazilian field isolates) is 2.5 to 4.9 nM; in series [1] (read-out: Median EC50, P. falciparum Brazilian field isolates), 4.2 nM.
The term IC50 denotes the concentration at which inhibition is half-maximal. Turning to `Nc1ncnc2c1c(OC(F)F)nn2[C@@H]1O[C@H](COS(N)(=O)=O)[C@@H](O)[C@H]1O` [ML901], the IC50 in series [2] (female, read-out: Dual gamete formation assay (female) IC50(48h)) was 4700 nM; in series [2] (male, read-out: Dual gamete formation assay (male) IC50(48h)), 130 ± 10 nM.
